Test [1] has as its target T1, human recombinant CyPA (Homo sapiens, UniProt P62937). Kind of test: Rotamase (PPIase) inhibition, chymotrypsin-coupled cuvette assay, human recombinant CyPA. The class given is biochemical. The settings on record: Table A, value without asterisk: human recombinant CyPA. The source says:
A number of substrates for rotamase are known in the art or can be derived from those known. Typically, the substrate contacts a sample containing a protein with rotamase activity and the conversion of the substrate is detected after a period of time. The method for detecting conversion of the substrate will vary with the particular substrate chosen. One method has been termed the Ki test (See Harding, et al., Nature, 341:758-760 (1989); and Holt et al., J. Am. Chem. Soc., 115:9923-9938). The cis-trans isomerization of an alanine-proline bond in a model substrate, N-succinyl-Ala-Ala-Pro-Phe-p-nitroanilide (SEQ ID NO: 1), is monitored spectrophotometrically in a chymotrypsin-coupled assay. The action of chymotrypsin releases p-nitroaniline from only the trans form of the substrate. The amount of p-nitroaniline can be monitored in a spectrophotometer, for example. Other methods of detecting the presence of p-nitroaniline can also be used. The inhibition of this reaction caused by different concentrations of inhibitor is determined and the data are analyzed as a change in first-order rate constant as a function of inhibitor concentration, which yields the Ki value.
The following were added to a plastic cuvette: 950 μl of ice cold assay buffer (25 mM HEPES, pH 7.8, 100 mM NaCl), 10 μL of CyP A (2.5 μM in 10 mM Tris-Cl pH 7.5, 100 mM NaCl, 1 mM dithiothreitol), 25 μL of chymotrypsin (50 mg/ml in 1 mM HCl), and 10 μL of test compound, at various concentrations, in dimethyl sulfoxide. The reaction was initiated by the addition of 5 μL of substrate (succinyl-Ala-Phe-Pro-Phe-para-nitroanilide (SEQ ID NO: 1), 5 mg/mL in 470 mM LiCl in trifluoroethanol). The absorbance at 390 nm versus time was monitored for 90 seconds using a spectrophotometer and the rate constants were determined from the absorbance versus time data files.
The IC50 values which were obtained for representative compounds are given in the following Table A, and refer to the concentration that inhibits 50% of the rotamase activity in a sample.
(§1) The Cyclophilin utilized was a human recombinant CyPA, [Yoo et al., J. Mol. Biol., 269 (1997) 780-95].

Test [2] has as its target T1, human recombinant CyPA. Kind of test: Semiautomated microtiter plate assay of rotamase activity inhibition, human recombinant CyPA. The class given is biochemical. Particulars: Table B, value without asterisk: human recombinant CyPA. On the procedure:
(§2) Rotamase inhibition was determined using a semiautomated microtiter plate assay modification of the above described assay [see Küllertz et al., Clin. Chem. 44, 502-508 (1998)]. All dilutions of CyPA, peptide substrate, and chymotrypsin were made in 35 mM ice-cold HEPES buffer. Fifty μL of CyPA solution is added to 50 μL of the peptide substrate solution (Phe-Pro-Phe p-nitroanilide, 0.16 mg/ml) in a glass microtiter well plate (the concentration of human recombinant CyP being adjusted so that the reaction rate is increased by a factor of 3 as compared to an uncatalyzed control reaction wherein the peptide substrate is degraded by chymotrypsin alone, in the absence of CyPA and test compound). Using a Beckman Multimek™ 96 automated 96-channel pipettor, 5 μL of test compound solution, or a DMSO blank, were added to each well for a 30 minute preincubation at 4° C. One hundred μL of chymotrypsin solution (1 mg/mL) were added to each well and the absorbance at 390 nm versus time was monitored for 9-10 minutes using a BioRad Ultramark plate reader maintained at 4° C. and the rate constants were determined from the absorbance versus time data files.
(§3) IC50 values which were obtained for representative compounds are presented in the following Table B. The cyclophilin utilized was a human recombinant CyPA. […] While CyP A was used in these examples, other CyP proteins can be substituted.

The target of test [3] is T2, recombinant rat CyPA-GST fusion protein (Rattus norvegicus, UniProt P10111).
T2 construct: made in house; host or cells: E. coli BL21
Description: Rotamase (PPIase) inhibition, chymotrypsin-coupled cuvette assay, rat CyPA-GST fusion protein. The settings on record: Table A, value with asterisk: recombinant rat CyPA-GST fusion protein. It counts as biochemical.

The target of test [4] is T2, recombinant rat CyPA-GST fusion protein. Description: Semiautomated microtiter plate assay of rotamase activity inhibition, rat CyPA-GST fusion protein. The class given is biochemical. Particulars: Table B, value with asterisk: recombinant rat CyPA-GST fusion protein. On the procedure:
as §1
The resulting fragment (573 base pairs) was cloned into pCRII and amplified. The CyP sequence was cut out with Sma1 and EcoR1 and cloned into the Sma1/EcoR1 sites in pGEX2TK (Pharmacia). This plasmid was transformed into BL21 E. coli cells for expression of the GST-CyPA fusion protein.
as §2, §3

Test [5] has as its system nigrostriatal dopaminergic fibers. Description: MPTP-lesioned mouse model of Parkinson's disease, striatal TH fiber density. The class given is in vivo, CD1 albino mice. Particulars: for % protection of striatal tyrosine hydroxylase-immunoreactive fibres: 10 mg/kg s.c. once daily days 1-5, one hour prior to MPTP, perfused day seven.

T2 sequence (P10111 2-164): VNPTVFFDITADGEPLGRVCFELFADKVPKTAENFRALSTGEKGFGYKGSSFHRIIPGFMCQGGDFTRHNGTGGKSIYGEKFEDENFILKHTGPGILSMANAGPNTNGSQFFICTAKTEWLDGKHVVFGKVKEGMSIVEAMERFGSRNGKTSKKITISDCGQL
T1 sequence (P62937 whole entry): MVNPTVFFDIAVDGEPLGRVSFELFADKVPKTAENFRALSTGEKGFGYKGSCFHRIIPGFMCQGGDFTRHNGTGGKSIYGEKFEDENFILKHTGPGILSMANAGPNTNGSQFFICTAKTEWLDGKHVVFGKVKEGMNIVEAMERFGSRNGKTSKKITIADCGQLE

Take `S=C(Nc1cc(Cl)cc(Cl)c1)Nc1cc(NC(=S)Nc2cc(Cl)cc(Cl)c2)cc(Nc2ccccn2)c1` [Compound 13]: the IC50 (usually the concentration needed to halve the response being measured) on human recombinant CyPA [1] was determined as 456 nM; on human recombinant CyPA [2], 1370 nM.

For the compound `O=C(NNC(=O)c1cc(O)cc(NC(=O)c2cccc(C(F)(F)F)c2)c1)c1ccccc1` [Compound 15, 1-Benzoyl-2-{3-[(3-trifluoromethyl)phenyl]carbonylamino-5-hydroxy}benzoylhydrazine], the IC50 was 18700 nM at human recombinant CyPA [1] and 9100 nM at human recombinant CyPA [2].

On to `O=C(Nc1cc(Cl)cc(Cl)c1)c1cc(COc2ccc(Cl)c(Cl)c2)cc(C(=O)Nc2cc(Cl)cc(Cl)c2)c1` [Compound 20, 1-[(3,4-dichlorophenyl)oxymethyl]-3,5-bis-[(3,5-dichlorophenyl)aminocarbonyl]benzene], for which the figures for the IC50 on human recombinant CyPA [1] and at human recombinant CyPA [2] were 153 nM and 499 nM, respectively.

`N#Cc1ccccc1-c1ccc(COc2cc(C(=O)NCCc3ccc(Cl)c(Cl)c3)cc(C(=O)NCCc3ccc(Cl)c(Cl)c3)c2)cc1` [Compound 21, 1-[4-(2-cyanophenyl)benzy]loxy-3,5-bis{2-[(3,4-dichlorophenyl)ethyl]aminocarbonyl}benzene]: the IC50 was 490 nM at human recombinant CyPA [1] and 1730 nM at human recombinant CyPA [2].

`O=C(Nc1cccc(C(F)(F)F)c1)c1cc(/C=C/c2ccc3ccccc3c2)cc(C(=O)Nc2cccc(C(F)(F)F)c2)c1` [Compound 25, (5-(2-(2-naphthyl)vinyl)-3-{N-[3-(trifluoromethyl)phenyl]carbamoyl}phenyl)-N-[3-(trifluoromethyl)phenyl]formamide]: the figures for the IC50 at human recombinant CyPA [1] and at human recombinant CyPA [2] were 297 nM and 2030 nM, respectively.

As for `Nc1cc(CN2C(=O)c3ccccc3C2=O)cc(NC(=S)Nc2cc(Cl)cc(Cl)c2)c1` [Compound 31, 2-{[3-amino-5-({[(3,5-dichlorophenyl)amino]thioxomethyl}amino)phenyl]methyl}isoindoline-1,3-dione], the IC50 at human recombinant CyPA [1] amounted to 1580 nM; in test [3], 3530 nM; in test [4], 6940 nM.

Turning to `O=C(Nc1cc(Cl)c(Cl)c(Cl)c1)c1cc(OCc2ccc(Cl)c(Cl)c2)cc(C(=O)Nc2cc(Cl)c(Cl)c(Cl)c2)c1` [Compound 32, 1-(3,4-dichlorobenzyloxy)-3,5-bis-[(3,4,5-trichlorophenyl)aminocarbonyl]benzene], the IC50 on human recombinant CyPA [1] is 164 nM; in test [3], 102 nM; at human recombinant CyPA [2], 51.5 nM; in test [4], 91.7 nM.

Consider `CN(C)c1ccc(Nc2ccc(NC(=S)Nc3cc(Cl)cc(Cl)c3)cc2NC(=S)Nc2cc(Cl)cc(Cl)c2)cc1` [Compound 35, [(3,5-dichlorophenyl)amino]{[5-({[(3,5-dichlorophenyl)amino]thioxomethyl}amino)-2-{[4-(dimethylamino)phenyl]amino}phenyl]amino}methane-1-thione], for which the IC50 is 1310 nM in test [3] and 353 nM in test [4].

Consider `O=C(Nc1ccc(Cl)c(C(F)(F)F)c1)c1cccc(COc2cc(C(=O)Nc3ccc(Cl)c(C(F)(F)F)c3)cc(C(=O)Nc3ccc(Cl)c(C(F)(F)F)c3)c2)c1` [Compound 37, 3-{[(3-Trifluoromethyl-4-chlorophenyl)aminocarbonyl]benzyloxy}-1,5-bis-[(3-trifluoromethyl-4-chlorophenyl)aminocarbonyl]benzene], for which the 50% inhibitory concentration (IC50) on human recombinant CyPA [1] is 1200 nM.

As to `O=C(Nc1ccc(Cl)c(Cl)c1)c1cccc(COc2cc(C(=O)Nc3ccc(Cl)c(Cl)c3)cc(C(=O)Nc3ccc(Cl)c(Cl)c3)c2)c1` [Compound 38, 3-{[(3,4-dichlorophenyl)aminocarbonyl]benzyloxy}-1,5-bis-[(3,4-dichloro-phenyl)aminocarbonyl]benzene], the IC50 at human recombinant CyPA [1] worked out at 736 nM.

In the case of `O=C(Nc1cccc([N+](=O)[O-])c1)c1ccc(Br)c(C(=O)Nc2cccc([N+](=O)[O-])c2)c1` [Compound 41, {2-bromo-5-[N-(3-nitrophenyl)carbamoyl]phenyl}-N-(3-nitrophenyl) formamide], the IC50 on human recombinant CyPA [1] is 1370 nM.

For the compound `O=C(Nc1cccc(C(F)(F)F)c1)c1cc(OCc2ccc3ccccc3c2)cc(C(=O)Nc2cccc(C(F)(F)F)c2)c1` [Compound 42, 1,3-Bis[(3-trifluoromethylphenyl)aminocarbonyl]-5-[(2-naphthyl)methyloxy]benzene], in test [3], the IC50 amounted to 230 nM. The “% protection of striatal tyrosine hydroxylase-immunoreactive fibres” value in test [5] is 44.1%. Further, the “striatal TH fiber density” value in test [5] (regeneration protocol: MPTP days 1-5, compound once daily on days 8-12, perfused day 18) came to 88%.

With `S=C(Nc1cc(Cl)cc(Cl)c1)Nc1ccc(N2CCCCC2)c(NC(=S)Nc2cc(Cl)cc(Cl)c2)c1` [Compound 44], the IC50 in test [3] was 374 nM. In test [5], the “% protection of striatal tyrosine hydroxylase-immunoreactive fibres” value is listed as 25.1%.

Take `COc1ccc(NC(=O)c2cccc3ccccc23)cc1OCc1cccc2ccccc12` [Compound 47, N-[4-methoxy-3-(naphthylmethoxy)phenyl]naphthylformamide]: the IC50 in test [3] was 1220 nM.

On to `COc1ccc(NC(=O)Cc2cccc3ccccc23)cc1OCc1cccc2ccccc12` [Compound 48, N-[4-methoxy-3-(naphthylmethoxy)phenyl]-2-naphthylethanamide], for which, in test [3], the half-maximal inhibitory concentration (IC50) is 1190 nM.

For the compound `COc1ccc(NC(=O)C(c2ccccc2)c2ccccc2)cc1OCc1cccc2ccccc12` [Compound 49, N-[4-methoxy-3-(naphthylmethoxy)phenyl]-2,2-diphenylethanamide], the IC50 in test [3] came to 1020 nM.

With `COc1ccc(NS(=O)(=O)c2cccc3ccccc23)cc1OCCc1cccc2ccccc12` [Compound 50], the IC50 in test [3] came out at 978 nM.

With `O=C(Nc1ccc(Cl)c(C(=O)c2ccccc2)c1)c1cc(Cl)cc(Cl)c1` [Compound 51, (3,5-Dichlorophenyl)-N-[4-chloro-3-(phenylcarbonyl)phenyl]formamide], in test [3], the IC50 is 1550 nM.

Take `O=C(Nc1cc(S(=O)(=O)NC(c2ccccc2)c2ccccc2)ccc1Cl)c1cc(Cl)cc(Cl)c1` [Compound 52, (3,5-Dichlorophenyl)-N-(5-{[(diphenylmethyl)amino]sulfonyl}-2-chlorophenyl)formamide]: the IC50 in test [3] was 861 nM.

Take “(3-bromo-5-{N-[3-(trifluoromethyl)phenyl]carbamoyl}phenyl)-N-[3-(trifluoromethyl) phenyl]formamide [Compound 26]”: the values for the IC50 at human recombinant CyPA [1] and on human recombinant CyPA [2] were 909 nM and 2540 nM, respectively.

(Values after patent US6656971B2, “Trisubstituted carbocyclic cyclophilin binding compounds and their use” (Guilford Pharmaceuticals Inc., priority 2001, dated 2003).)
